The values below come from patent US7307044B2, “3-biphenyl-substituted-3-substituted-4-ketolactam and ketolactone and their utilization as pesticide” (Bayer CropScience AG, priority 2001, dated 2007).

Data set [1] relates to larvae of the mustard beetle (Phaedon cochleariae). The experiment in a line: Phaedon larvae test. The format is in vivo. To be noted: cabbage leaves dipped. How it is done: (§1) Phaedon Larvae Test Solvent: 7 parts by weight of dimethylformamide Emulsifier: 2 parts by weight of alkylaryl polyglycol ether To produce a suitable preparation of active compound, 1 part by weight of active compound is mixed with the stated amounts of solvent and emulsifier, and the concentrate is diluted with emulsifier-containing water to the desired concentration. Cabbage leaves (Brassica oleracea) are treated by being dipped into the preparation of active compound of the desired concentration and are populated with larvae of the mustard beetle (Phaedon cochleariae) while the leaves are still moist. After the desired period of time, the kill in % is determined. 100% means that all beetle larvae have been killed; 0% means that none of the beetle larvae have been killed.

In data set [2] the test system is greenhouse red spider mite (Tetranychus urticae). The experiment in a line: Tetranychus test (OP-resistent/dip treatment). The format is in vivo. The note with it: 100 ppm, bean plants dipped. How it is done: Tetranychus Test (OP-Resistent/Dip Treatment)
Solvent: 7 parts by weight of dimethylformamide
Emulsifier: 2 parts by weight of alkylaryl polyglycol ether
To produce a suitable preparation of active compound, 1 part by weight of active compound is mixed with the stated amounts of solvent and emulsifier, and the concentrate is diluted with emulsifier-containing water to the desired concentration.
Bean plants (Phaseolus vulgaris) which are heavily infested by all stages of the greenhouse red spider mite (Tetranychus urticae) are dipped into a preparation of active compound of the desired concentration.
After the desired period of time, the effect in % is determined. 100% means that all spider mites have been killed; 0% means that none of the spider mites have been killed.

The subject of another data set is Avena fatua. The experiment in a line: Post-emergence test (greenhouse). The class given is in vivo. To be noted: 250 g ai/ha, after three weeks. How it is done:
(§2) Solvent: 5 parts by weight of acetone
(§3) Emulsifier: 1 part by weight of alkylaryl polyglycol ether
(§4) To produce a suitable preparation of active compound, 1 part by weight of active compound is mixed with the stated amount of solvent, the stated amount of emulsifier is added and the concentrate is diluted with water to the desired concentration.
(§5) Test plants of a height of 5-15 cm are sprayed with the preparation of active compound such that the particular amounts of active compound desired are applied per unit area. The concentration of the spray liquor is chosen such that the particular amounts of active compound desired are applied in 1000 l of water/ha.
(§6) After three weeks, the degree of damage to the plants is rated in % damage in comparison to the development of the untreated control.
(§7) The figures denote: • 0%=no effect (like untreated control) • 100%=total destruction

Another data set has as its system Echinochloa. The experiment in a line: Post-emergence test (greenhouse). The class given is in vivo. To be noted: 250 g ai/ha, after three weeks. The protocol: as §2, §3, §4, §5, §6, §7
In another data set the test system is Alopecurus. As to the kind of experiment: Post-emergence test (greenhouse). The class given is in vivo. To be noted: 250 g ai/ha, after three weeks. The protocol: as §2, §3, §4, §5, §6, §7
The test system of another data set is Setaria. The experiment in a line: Post-emergence test (greenhouse). The class given is in vivo. The note with it: 250 g ai/ha, after three weeks. How it is done:
as §2, §3, §4, §5, §6, §7

The subject of data set [3] is green peach aphid (Myzus persicae). The experiment in a line: Myzus test. The class given is in vivo. The note with it: 500 ppm, cabbage leaves dipped. The protocol: as §1, with “Myzus” for “Phaedon Larvae”, “oleracea) which are heavily infested by the green peach aphid (Myzus persicae)” for “oleracea)”, “concentration.” for “concentration and are populated with larvae of the mustard beetle (Phaedon cochleariae) while the leaves are still moist.”, “aphids” for “beetle larvae”

Data set [4] has as its system caterpillars of the armyworm (Spodoptera frugiperda). The experiment in a line: Spodoptera frugiperda test. The format is in vivo. To be noted: cabbage leaves dipped. The protocol: as §1, with “Spodoptera frugiperda” for “Phaedon Larvae”, “caterpillars” for “larvae”, “armyworm (Spodoptera frugiperda)” for “mustard beetle (Phaedon cochleariae)”, “caterpillars” for “beetle larvae”

The next data set concerns Plasmopara viticola. The experiment in a line: Plasmopara test (grapevine)/protective. The format is in vivo. The note with it: protective, 100 g/ha, evaluation 6 days after inoculation. How it is done: Plasmopara Test (Grapevine)/Protective Solvents: 24.5 parts by weight of acetone • 24.5 parts by weight of dimethylacetamide Emulsifier: 1.0 part by weight of alkylaryl polyglycol ether To produce a suitable preparation of active compound, 1 part by weight of active compound is mixed with the stated amounts of solvent and emulsifier, and the concentrate is diluted with water to the desired concentration. To test for protective activity, young plants are sprayed with the preparation of active compound at the stated application rate. After the spray coating has dried on, the plants are inoculated with an aqueous spore suspension of Plasmopara viticola and then remain in an incubation cabin at 20° C. and 100% relative atmospheric humidity for 1 day. The plants are then placed in a greenhouse at about 21° C. and about 90% atmospheric humidity for 4 days. The plants are then moistened and placed in an incubation cabin for 1 day.

Data set [5] deals with caterpillars of the diamondback moths (Plutella xylostella). The experiment in a line: Plutella test. The class given is in vivo. The note with it: 500 ppm, cabbage leaves dipped. The protocol:
as §1, with “Plutella” for “Phaedon Larvae”, “caterpillars” for “larvae”, “diamondback moths (Plutella xylostella)” for “mustard beetle (Phaedon cochleariae)”, “caterpillars” for “beetle larvae”

Data set [6] has as its system caterpillars of the armyworm (Spodoptera exigua). As to the kind of experiment: Spodoptera exigua test. The class given is in vivo. To be noted: 500 ppm, cabbage leaves dipped. How it is done: as §1, with “Spodoptera exigua” for “Phaedon Larvae”, “caterpillars” for “larvae”, “armyworm (Spodoptera exigua)” for “mustard beetle (Phaedon cochleariae)”, “caterpillars” for “beetle larvae”

The next data set relates to Sugar beet. As to the kind of experiment: Post-emergence test (greenhouse). The format is in vivo. To be noted: 250 g ai/ha, after three weeks. The protocol:
as §2, §3, §4, §5, §6, §7

A further data set can be described thus: physchem. The class given is physicochemical. The note with it: for log P: pH 2.3. How it is done:
The stated log P values were determined in accordance with EEC Directive 79/831 Annex V.A8 by HPLC (High Performance Liquid Chromatography) using a reversed-phase column (C 18). Temperature: 43° C. • (a) Mobile phases for the determination in the acidic range: 0.1% aqueous phosphoric acid, acetonitrile; linear gradient from 10% acetonitrile to 90% acetonitrile. • (b) Mobile phases for the determination in the neutral range: 0.01 molar aqueous phosphate buffer solution, acetonitrile; linear gradient from 10% acetonitrile to 90% acetonitrile.
Calibration was carried out using unbranched alkan-2-ones (of 3 to 16 carbon atoms) with known log P values (determination of the log P values by the retention times using linear interpolation between two successive alkanones).

Turning to `Cc1ccc(-c2cccc(Cl)c2)cc1C1(Cl)C(=O)NC(C)(C)C1=O` (centres unmarked) [Ex. I-1-3], the “Kill rate in % after 7 d” value in data set [1] (500 ppm) turned out to be 100%.
For `Cc1cc(C)c(C2(Cl)C(=O)NC3(CCCOC3)C2=O)cc1-c1ccc(Cl)cc1` (centres unmarked) [Ex. I-1-7], the “Kill rate in % after 7 d” value in [2] was found to be 98%; in [1] (500 ppm) it was 100%; in data set [4] (500 ppm), 100%. For the same compound, the “degree of damage to the plants in % damage” value (“degree … in % damage” below) with Avena fatua worked out at 95%; in the data set on Echinochloa, 100%; with Alopecurus, 90%; with Setaria it was 100%. The “Kill rate in % after 6 d” value in [3] is on record as 100%.
As for `CCOC1CCC2(CC1)NC(=O)C(Cl)(c1c(C)cc(-c3ccc(Cl)cc3)cc1Cl)C2=O` (centres unmarked) [Ex. I-1-9], the “degree … in % damage” value with Avena fatua was 100%; in the data set with Echinochloa it was 100%; in the data set on Alopecurus, 95%; with Setaria, 100%. For the same compound, in data set [3], the “Kill rate in % after 6 d” value is 95%. The “Kill rate in % after 7 d” value in [1] (500 ppm) amounted to 100%.
In the case of `COC1CCC2(CC1)NC(=O)C(Cl)(c1cc(-c3cccc(Cl)c3)ccc1Cl)C2=O` (centres unmarked) [Ex. I-1-12], the “Kill rate in % after 7 d” value in [2], in data set [5], in [1] (500 ppm) and in [4] (500 ppm) was 100% in each case. For the same compound, in the data set with Plasmopara viticola, the “% efficacy” value was 94%.
On to `COC1CCC2(CC1)NC(=O)C(Cl)(c1cc(-c3ccc(Cl)c(Cl)c3)ccc1C)C2=O` (centres unmarked) [Ex. I-1-13], for which the “Kill rate in % after 7 d” value worked out at 95% in data set [2]; 100% in data set [6]; 100% in [5]; 100% in data set [1] (500 ppm); 100% in data set [4] (500 ppm). For the same compound, the “degree … in % damage” value is given as 90% in the data set with Avena fatua, 100% in the data set with Echinochloa, 95% in the data set with Alopecurus and 90% with Setaria. The “% efficacy” value in the data set with Plasmopara viticola was 94%. Also, in data set [3], the “Kill rate in % after 6 d” value stood at 100%.
For the compound `Cc1ccc(-c2ccc(Cl)cc2)cc1C1(Cl)C(=O)NC2(CCOCC2)C1=O` (centres unmarked) [Ex. I-1-14], the results for the “Kill rate in % after 7 d” value in data set [2], in [1] (500 ppm) and in data set [4] (500 ppm) were 99%, 100% and 100%, respectively. The “degree … in % damage” value in the data set on Avena fatua was determined as 100%; with Echinochloa it was 100%; with Alopecurus, 80%; in the data set on Setaria, 100%; with Sugar beet it was 0%. Moreover, in the data set with Plasmopara viticola, the “% efficacy” value amounted to 100%. In data set [3], the “Kill rate in % after 6 d” value worked out at 100%.
Turning to `Cc1ccc(-c2ccc(Cl)c(Cl)c2)cc1C1(Cl)C(=O)NC(C)(C)C1=O` (centres unmarked) [Ex. I-1-15], the “Kill rate in % after 7 d” value in data set [2] was 99%; in data set [6], 100%; in data set [5] it was 100%; in data set [1] (500 ppm), 100%; in data set [4] (500 ppm), 100%. The “Kill rate in % after 6 d” value in data set [3] is recorded as 95%.
With `Cc1ccc(-c2ccc(Cl)cc2)cc1C1(Cl)C(=O)OC(C)(C)C1=O` (centres unmarked) [Ex. I-2-1], in “physchem” (pH 2.5), the chromatographic logP – broadly, lipophilicity estimated from chromatographic retention – came to 4.8. In addition, the “Kill rate in % after 7 d” value in data set [2] stood at 98%; in data set [1] (1000 ppm) it was 100%; in data set [4] (1000 ppm) it was 100%.
Consider `Cc1ccc(-c2ccc(Cl)cc2)cc1C1(Cl)C(=O)SC2(CCCCC2)C1=O` (centres unmarked) [Ex. I-3-1], for which the “Kill rate in % after 7 d” value in data set [1] (500 ppm) amounted to 100%.
On to `Cc1ccc(-c2ccc(Cl)cc2)cc1C1(Cl)C(=O)OC(C)(C(C)C)C1=O` (centres unmarked) [I-2-5], for which, in “physchem”, the “log P” value is “log P 5.61”.
On the same count and under the same terms, to `Cc1cc(C)c(C2(Cl)C(=O)OC3(CCCC3)C2=O)cc1-c1ccc(Cl)cc1` (centres unmarked) [I-2-6] belongs “log P 5.56”; to `CCc1ccc(-c2ccc(Cl)cc2)cc1C1(Cl)C(=O)OC(C)(C)C1=O` (centres unmarked) [I-2-7], “log P 5.05”.
Consider `Cc1ccc(-c2cccc(F)c2)cc1C1(Cl)C(=O)OC(C)(C)C1=O` (centres unmarked) [I-2-11], for which the “log P” value in the data set “physchem” is listed as “log P 4.30”.
On the same count and under the same terms, to `CCOC1CCC2(CC1)OC(=O)C(Cl)(c1c(C)cc(-c3ccc(Cl)cc3)cc1CC)C2=O` (centres unmarked) [I-2-13] belongs “log P 5.59”; to `Cc1cc(-c2ccc(Cl)cc2)cc(C)c1C1(Cl)C(=O)OC(C)(C)C1=O` (centres unmarked) [I-2-14], “log P 5.11”; to `Cc1cc(-c2ccc(Cl)cc2)cc(C)c1C1(Cl)C(=O)OC2(CCCOC2)C1=O` (centres unmarked) [I-2-17], “log P 4.91”.
